Test results published in article PMC6709486, “Safety, Tolerability, Pharmacokinetics, and Drug Interaction Potential of SPR741, an Intravenous Potentiator, after Single and Multiple Ascending Doses and When Combined with β-Lactam Antibiotics in Healthy Subjects” (Antimicrobial Agents and Chemotherapy, 2019).
Peptide text beside a SMILES is read from it.

Legend:
[1] = clinical; set-up: species or system human; settings: in vivo, iv
From the text: The SAD/MAD study was a phase 1, double-blind, placebo-controlled, multicohort trial. Part 1 used a SAD design according to which subjects received a single i.v. dose of SPR741. Part 2 used a MAD design in which subjects received multiple daily i.v. doses of SPR741 over a period of 14 days. The objective was to assess the safety/tolerability and PK of single and multiple ascending doses of SPR741. In the SAD phase, healthy volunteers were screened within 28 days prior to dosing. Subjects were admitted to the clinical facility on day −1 for up to 3 days. A single dose of SPR741 (or placebo) was administered on day 1. Following completion of all safety assessments and sampling for PK analyses, subjects were discharged on day 2. A follow-up visit occurred 5 to 7 days after day 1 dosing. In the MAD phase, all subjects were admitted to the clinical facility on day −1. Dosing commenced on the morning of day 1. Three doses were administered daily at approximately 8 (±0.5)-h intervals for a total of 14 consecutive days. The last dose was administered on the morning of day 14. Blood and urine samples were collected for assessment of PK parameters. Subjects were discharged on day 16 following completion of all PK sample collection and safety assessments, and a follow-up visit occurred 5 to 7 days after the last dose. In the SAD phase, subjects were randomized to one of eight cohorts that received doses of 5, 15, 50, 100, 200, 400, 600 or 800 mg of SPR741. Within each cohort, two subjects received placebo, and six received SPR741. In cohort 1, two subjects (sentinels) were dosed with SPR741 or placebo 48 h prior to dosing of the remaining subjects. The remaining six subjects were dosed only after no safety concerns were identified in the sentinel subjects. After each dose cohort had completed administration of study drug and evaluation, a Safety Monitoring Group reviewed blinded cumulative safety data (including day 5 to day 7 follow-up data) to confirm the safety and tolerability of SPR741.

[2] = set-up: species or system human; settings: in vivo
Protocol: In the SAD phase, healthy volunteers were screened within 28 days prior to dosing. Subjects were admitted to the clinical facility on day −1 for up to 3 days. A single dose of SPR741 (or placebo) was administered on day 1. Following completion of all safety assessments and sampling for PK analyses, subjects were discharged on day 2. A follow-up visit occurred 5 to 7 days after day 1 dosing. In the MAD phase, all subjects were admitted to the clinical facility on day −1. Dosing commenced on the morning of day 1. Three doses were administered daily at approximately 8 (±0.5)-h intervals for a total of 14 consecutive days. The last dose was administered on the morning of day 14. Blood and urine samples were collected for assessment of PK parameters. Subjects were discharged on day 16 following completion of all PK sample collection and safety assessments, and a follow-up visit occurred 5 to 7 days after the last dose.

SMILES: CC(=O)N[C@H](C(=O)N[C@H](CO)C(=O)N[C@H]1CCNC(=O)[C@H]([C@@H](C)O)NC(=O)[C@H](CCN)NC(=O)[C@H](CCN)NC(=O)[C@H](CC(C)C)NC(=O)[C@@H](Cc2ccccc2)NC(=O)[C@H](CCN)NC1=O)[C@@H](C)O [SPR741] (HELM PEPTIDE1{[ac].T.[dS].[Dab].[Dab].[dF].L.[Dab].[Dab].T}$PEPTIDE1,PEPTIDE1,4:R3-10:R2$$$V2.0)
- Tmax ([1]; human): 1 h
- AUC(0-inf) ([1]; human, 5 mg): 1010 ng·h/mL
- Cmax ([1]; human, 5 mg): 370 ng/mL
- Vd ([1]; human, 5 mg): 14.4 L
- clearance ([1]; human, 5 mg): 83.3 mL/min
- half-life ([1]; human, 5 mg): 2.02 h
- AUC(0-inf) ([1]; human, 15 mg): 3090 ng·h/mL
- Cmax ([1]; human, 15 mg): 924 ng/mL
- Vd ([1]; human, 15 mg): 19.7 L
- clearance ([1]; human, 15 mg): 84 mL/min
- half-life ([1]; human, 15 mg): 2.81 h
- AUC(0-inf) ([1]; human, 50 mg): 9740 ng·h/mL
- Cmax ([1]; human, 50 mg): 3250 ng/mL
- Vd ([1]; human, 50 mg): 18.4 L
- clearance ([1]; human, 50 mg): 86.3 mL/min
- half-life ([1]; human, 50 mg): 2.48 h
- AUC(0-inf) ([1]; human, 100 mg): 18200 ng·h/mL
- Cmax ([1]; human, 100 mg): 6010 ng/mL
- Vd ([1]; human, 100 mg): 20.6 L
- clearance ([1]; human, 100 mg): 92.5 mL/min
- half-life ([1]; human, 100 mg): 2.57 h
- AUC(0-inf) ([1]; human, 200 mg): 37300 ng·h/mL
- Cmax ([1]; human, 200 mg): 13400 ng/mL
- Vd ([1]; human, 200 mg): 20.3 L
- clearance ([1]; human, 200 mg): 91 mL/min
- half-life ([1]; human, 200 mg): 2.62 h
- AUC(0-inf) ([1]; human, 400 mg): 82200 ng·h/mL
- Cmax ([1]; human, 400 mg): 26000 ng/mL
- Vd ([1]; human, 400 mg): 24.5 L
- clearance ([1]; human, 400 mg): 81.5 mL/min
- half-life ([1]; human, 400 mg): 3.47 h
- AUC(0-inf) ([1]; human, 600 mg): 133000 ng·h/mL
- Cmax ([1]; human, 600 mg): 38000 ng/mL
- Vd ([1]; human, 600 mg): 24.6 L
- clearance ([1]; human, 600 mg): 77 mL/min
- half-life ([1]; human, 600 mg): 3.76 h
- AUC(0-inf) ([1]; human, 800 mg): 190000 ng·h/mL
- Cmax ([1]; human, 800 mg): 52600 ng/mL
- Vd ([1]; human, 800 mg): 21.2 L
- clearance ([1]; human, 800 mg): 70.8 mL/min
- half-life ([1]; human, 800 mg): 3.46 h
- time of peak mean plasma concentration [1]: approximately 1 h
- fraction of the dose excreted from 0 to 24 h postdose on day 14 [2]: 139.1%
